US12240816B2, “Deuterated compounds and uses thereof” (Aldeyra Therapeutics, Inc., priority 2015, dated 2025)
“And” between values parts separate entries of the source, which are not always exact repeats. Equal values may be shown once. “Also recorded” adds a separate entry of the source. Read-outs that look alike come from different tables or passages of the source. Marks after values point to notes of the source that are not given here.

What was measured:
human hepatocytes = type: in vitro ADME
rat hippocampal cultures = experiment: cells; type: cell-based
PR (h) = biological target: T1, PR (h) (Homo sapiens, UniProt P06401); experiment: PR (h) (agonist radioligand) binding assay; conditions: 1.0E−05M
T1 construct: T47D cells (cytosol)
T1 sequence (P06401 679-933): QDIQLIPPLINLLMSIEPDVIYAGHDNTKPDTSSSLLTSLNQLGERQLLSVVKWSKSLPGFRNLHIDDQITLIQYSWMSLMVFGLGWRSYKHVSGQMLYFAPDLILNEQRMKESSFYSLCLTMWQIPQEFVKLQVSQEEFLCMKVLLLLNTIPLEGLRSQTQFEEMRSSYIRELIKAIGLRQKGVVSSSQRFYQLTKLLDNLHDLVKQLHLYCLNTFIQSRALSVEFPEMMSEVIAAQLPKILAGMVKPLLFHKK

5-HT2B (h) = 5-HT2B (h) (Homo sapiens, UniProt P41595); experiment: 5-HT2B (h) (agonist radioligand) binding assay; conditions: 1.0E−05M
5-HT2B (h), sequence (P41595 whole entry): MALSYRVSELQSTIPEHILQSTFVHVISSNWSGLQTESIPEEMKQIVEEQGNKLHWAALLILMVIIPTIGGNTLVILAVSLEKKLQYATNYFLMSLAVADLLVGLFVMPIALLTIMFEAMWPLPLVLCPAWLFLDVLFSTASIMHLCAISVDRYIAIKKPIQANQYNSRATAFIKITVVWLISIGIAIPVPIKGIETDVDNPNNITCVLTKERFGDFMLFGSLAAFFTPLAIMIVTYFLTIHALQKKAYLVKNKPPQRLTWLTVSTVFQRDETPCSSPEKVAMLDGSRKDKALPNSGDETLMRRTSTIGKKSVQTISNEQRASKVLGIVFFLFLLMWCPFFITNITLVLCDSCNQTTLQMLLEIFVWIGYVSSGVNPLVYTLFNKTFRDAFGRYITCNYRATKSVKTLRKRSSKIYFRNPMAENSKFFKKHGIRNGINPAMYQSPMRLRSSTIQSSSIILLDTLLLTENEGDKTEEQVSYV

MAO-A = MAO-A (Rattus norvegicus, UniProt P21396); experiment: MAO-A (antagonist radioligand) binding assay; conditions: 1.0E−05M
MAO-A, sequence (P21396 whole entry): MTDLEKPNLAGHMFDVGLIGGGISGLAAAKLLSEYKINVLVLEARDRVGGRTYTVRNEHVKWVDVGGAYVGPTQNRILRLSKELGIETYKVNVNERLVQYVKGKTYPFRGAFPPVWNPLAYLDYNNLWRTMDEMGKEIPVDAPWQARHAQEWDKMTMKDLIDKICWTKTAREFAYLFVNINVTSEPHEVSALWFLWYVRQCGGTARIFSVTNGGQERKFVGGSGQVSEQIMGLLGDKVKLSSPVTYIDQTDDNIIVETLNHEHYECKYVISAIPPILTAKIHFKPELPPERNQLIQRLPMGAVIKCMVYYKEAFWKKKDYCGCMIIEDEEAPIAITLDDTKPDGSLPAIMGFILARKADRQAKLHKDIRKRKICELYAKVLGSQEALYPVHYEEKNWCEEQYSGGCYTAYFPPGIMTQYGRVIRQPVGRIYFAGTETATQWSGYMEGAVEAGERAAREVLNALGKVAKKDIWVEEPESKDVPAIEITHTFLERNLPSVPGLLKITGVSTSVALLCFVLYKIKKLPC

MT3 (ML2) = biological target: T2, MT3 (ML2) (Mesocricetus auratus, UniProt A0ABM2YAB8); experiment: MT3 (ML2) (agonist radioligand) binding assay; conditions: MT3 (ML2)(h) (agonist radioligand), 1.0E−05M
T2 sequence (A0ABM2YAB8 1-231): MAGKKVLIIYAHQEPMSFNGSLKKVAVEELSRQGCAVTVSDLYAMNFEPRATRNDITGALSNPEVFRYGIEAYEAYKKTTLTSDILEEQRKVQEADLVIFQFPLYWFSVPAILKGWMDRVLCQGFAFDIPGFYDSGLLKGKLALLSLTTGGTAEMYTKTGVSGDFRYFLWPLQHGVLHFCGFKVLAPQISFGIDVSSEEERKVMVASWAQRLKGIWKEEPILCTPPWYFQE

[1] = CFDA, Captisol formulation, 10 μM hydrogen peroxide, 5 h
[2] = CFDA, DMSO formulation, 10 μM hydrogen peroxide, 5 h
[3] = NS2 (CoreRx micro-milled, Captisol) 0.1 μM + 10 μM hydrogen peroxide, 5 h
[4] = NS2 (CoreRx micro-milled, Captisol) 1 μM + 10 μM hydrogen peroxide, 5 h
[5] = NS2 (CoreRx micro-milled, Captisol) 10 μM + 10 μM hydrogen peroxide, 5 h
[6] = NS2 (CoreRx micro-milled, Captisol) 100 μM + 10 μM hydrogen peroxide, 5 h
[7] = NS2 (CoreRx micro-milled, Captisol) 1 mM + 10 μM hydrogen peroxide, 5 h
[8] = NS2 (CoreRx micro-milled, DMSO) 0.1 μM + 10 μM hydrogen peroxide, 5 h
[9] = NS2 (CoreRx micro-milled, DMSO) 1 μM + 10 μM hydrogen peroxide, 5 h
[10] = NS2 (CoreRx micro-milled, DMSO) 10 μM + 10 μM hydrogen peroxide, 5 h
[11] = NS2 (CoreRx micro-milled, DMSO) 100 μM + 10 μM hydrogen peroxide, 5 h
[12] = NS2 (CoreRx micro-milled, DMSO) 1 mM + 10 μM hydrogen peroxide, 5 h
[13] = NS2 (J-Star non-milled, Captisol) 0.1 μM + 10 μM hydrogen peroxide, 5 h
[14] = NS2 (J-Star non-milled, Captisol) 1 μM + 10 μM hydrogen peroxide, 5 h
[15] = NS2 (J-Star non-milled, Captisol) 10 μM + 10 μM hydrogen peroxide, 5 h
[16] = NS2 (J-Star non-milled, Captisol) 100 μM + 10 μM hydrogen peroxide, 5 h
[17] = NS2 (J-Star non-milled, Captisol) 1 mM + 10 μM hydrogen peroxide, 5 h
[18] = NS2 (J-Star non-milled, DMSO) 0.1 μM + 10 μM hydrogen peroxide, 5 h
[19] = NS2 (J-Star non-milled, DMSO) 1 μM + 10 μM hydrogen peroxide, 5 h
[20] = NS2 (J-Star non-milled, DMSO) 10 μM + 10 μM hydrogen peroxide, 5 h
[21] = NS2 (J-Star non-milled, DMSO) 100 μM + 10 μM hydrogen peroxide, 5 h
[22] = NS2 (J-Star non-milled, DMSO) 1 mM + 10 μM hydrogen peroxide, 5 h
[23] = read-out: % Inhibition of Control Specific Binding 1st
[24] = read-out: % Inhibition of Control Specific Binding 2nd
[25] = read-out: % Inhibition of Control Specific Binding Mean

CC(C)(O)c1nc2ccc(Cl)cc2cc1N [NS2, 2-(3-amino-6-chloroquinolin-2-yl)propan-2-ol]
metabolite profile (human hepatocytes; NS2, 120 min, human hepatocytes): metabolized to M1, M7, M8, and a low amount of M9, with some unchanged NS2 remaining; also recorded: a mono-oxidation metabolite (M), two oxidation+glucuronidation metabolites (M7 and M9), and a glucuronidation metabolite (M)
Peak Areas Human (human hepatocytes; human, 120 min, 3 μM): 4.41E+08
Full Efficacy Concentration (rat hippocampal cultures; [1]): 100 µM
No effect Concentration (rat hippocampal cultures; [1]): 1 µM
EC50 (rat hippocampal cultures; CFDA, Captisol formulation, 10 μM hydrogen peroxide, 5 h, listed as CoreRx NS2 (milled), read-out: EC50 ± SE): 7 ± 4 µM
EC50 (rat hippocampal cultures; CFDA, Captisol formulation, 10 μM hydrogen peroxide, 5 h, listed as NS2 (J-Star), read-out: EC50 ± SE): 9.1 µM
Full Efficacy Concentration (rat hippocampal cultures; [2]): 100 µM
No effect Concentration (rat hippocampal cultures; [2]): 1 µM
EC50 (rat hippocampal cultures; CFDA, DMSO formulation, 10 μM hydrogen peroxide, 5 h, values with * are estimates, listed as NS2 (CoreRx), read-out: EC50 ± SE): 9.8 µM
EC50 (rat hippocampal cultures; CFDA, DMSO formulation, 10 μM hydrogen peroxide, 5 h, values with * are estimates, listed as NS2 (J-Star), read-out: EC50 ± SE): 2.6 µM
Full protection concentration (rat hippocampal cultures; CFDA, both NS2 formulations and both batches): 100 µM
no effect concentration (rat hippocampal cultures; CFDA, both formulations and batches): 1 µM
% of Control (CFDA) (rat hippocampal cultures; [3]): 58 ± 4%
CFDA signal, Mean (rat hippocampal cultures; [3]): 26931
% of Control (CFDA) (rat hippocampal cultures; [4]): 64 ± 6%
CFDA signal, Mean (rat hippocampal cultures; [4]): 29693
% of Control (CFDA) (rat hippocampal cultures; [5]): 80 ± 8%
CFDA signal, Mean (rat hippocampal cultures; [5]): 37577*
% of Control (CFDA) (rat hippocampal cultures; [6]): 100 ± 6%
CFDA signal, Mean (rat hippocampal cultures; [6]): 46508*
% of Control (CFDA) (rat hippocampal cultures; [7]): 92 ± 07%
CFDA signal, Mean (rat hippocampal cultures; [7]): 42889*
% of Control (CFDA) (rat hippocampal cultures; [8]): 61 ± 2%
CFDA signal, Mean (rat hippocampal cultures; [8]): 26314
% of Control (CFDA) (rat hippocampal cultures; [9]): 62 ± 6%
CFDA signal, Mean (rat hippocampal cultures; [9]): 26633
% of Control (CFDA) (rat hippocampal cultures; [10]): 79 ± 3%
CFDA signal, Mean (rat hippocampal cultures; [10]): 34180*
CFDA signal, replicate wells (rat hippocampal cultures; [10]): 32661 (3×) and 34496 and 38422
% of Control (CFDA) (rat hippocampal cultures; [11]): 101 ± 6%
CFDA signal, Mean (rat hippocampal cultures; [11]): 43328*
% of Control (CFDA) (rat hippocampal cultures; [12]): 90 ± 3%
CFDA signal, Mean (rat hippocampal cultures; [12]): 38622*
% of Control (CFDA) (rat hippocampal cultures; [13]): 60 ± 4%
CFDA signal, Mean (rat hippocampal cultures; [13]): 24142
% of Control (CFDA) (rat hippocampal cultures; [14]): 61 ± 3%
CFDA signal, Mean (rat hippocampal cultures; [14]): 24338
% of Control (CFDA) (rat hippocampal cultures; [15]): 79± 6%
CFDA signal, Mean (rat hippocampal cultures; [15]): 31811*
% of Control (CFDA) (rat hippocampal cultures; [16]): 93 ± 9%
CFDA signal, Mean (rat hippocampal cultures; [16]): 37544*
% of Control (CFDA) (rat hippocampal cultures; [17]): 98 ± 3%
CFDA signal, Mean (rat hippocampal cultures; [17]): 39516*
% of Control (CFDA) (rat hippocampal cultures; [18]): 60 ± 4%
CFDA signal, Mean (rat hippocampal cultures; [18]): 24819
% of Control (CFDA) (rat hippocampal cultures; [19]): 66 ± 6%
CFDA signal, Mean (rat hippocampal cultures; [19]): 27524
% of Control (CFDA) (rat hippocampal cultures; [20]): 85 ± 7%
CFDA signal, Mean (rat hippocampal cultures; [20]): 35341*
% of Control (CFDA) (rat hippocampal cultures; [21]): 96 ± 10%
CFDA signal, Mean (rat hippocampal cultures; [21]): 39844*
% of Control (CFDA) (rat hippocampal cultures; [22]): 88 ± 10%
CFDA signal, Mean (rat hippocampal cultures; [22]): 36632*
EC50 (rat hippocampal cultures; Rattus norvegicus, 5 h, CFDA, Captisol formulation, 10 μM hydrogen peroxide, 5 h, read-out: EC50 ± SE): 6.8 µM
EC50 (rat hippocampal cultures; Rattus norvegicus, CFDA, across formulations and batches, read-out: EC50 range): 3 to 10 µM
metabolite profile (monkey hepatocytes; NS2, 120 min, monkey hepatocytes): metabolized to M1, M3, M4, M7, M8, and a low amount of M9, with some unchanged NS2 remaining; also recorded: a mono-oxidation metabolite (M), four oxidation+glucuronidation metabolites (M3, M4, M7, and M9), and a glucuronidation metabolite (M)
Peak Areas Cyno Monkey (monkey hepatocytes; cynomolgus monkey, 120 min, 3 μM): 1.74E+08
metabolite profile (rat hepatocytes; NS2, 120 min, rat hepatocytes): metabolized to M1, M7, and M8, with some unchanged NS2 remaining
Peak Areas Rat (rat hepatocytes; rat, 120 min, 3 μM): 3.14E+08

[2H]C([2H])([2H])C(O)(c1nc2ccc(Cl)cc2cc1N)C([2H])([2H])[2H] [Compound I-1]
inhibition at 10 µM (PR (h); [23]): 58.7%
inhibition at 10 µM (PR (h); [24]): 63.1%
inhibition at 10 µM (PR (h); [25]): 60.9%
inhibition at 10 µM (5-HT2B (h); [23]): 60.8%
inhibition at 10 µM (5-HT2B (h); [24]): 64.2%
inhibition at 10 µM (5-HT2B (h); [25]): 62.5%
inhibition at 10 µM (MAO-A; [23]): 66.4%
inhibition at 10 µM (MAO-A; [24]): 70.7%
inhibition at 10 µM (MAO-A; [25]): 68.5%
inhibition at 10 µM (MT3 (ML2); [23]): 69%
inhibition at 10 µM (MT3 (ML2); [24]): 73.3%
inhibition at 10 µM (MT3 (ML2); [25]): 71.1%
